In patent publication US20260028354A1, “TETRAHYDRONAPHTHALENE DERIVATIVES AS ESTROGEN RECEPTOR DEGRADERS” (REGENT OF THE UNIVERSITY OF MICHIGAN, priority 2022, published 2026):
Like-named read-outs stand apart in the source and are kept apart here.

Key:
CRBN/DDB1 = CRBN/DDB1 (Homo sapiens (Human), UniProt Q96SW2); type: binding; details: His tagged CRBN+DDB1, Cy5-labeled Thalidomide probe, one hour; read-out: CRBN HTRF IC50
Description: The binding potency was determined using HTRF assay technology (Perkin Elmer). Compounds were serially diluted in DMSO and […] volume was transferred to white 384-well plate.

ER in T47D cells = ER in T47D cells (Homo sapiens (Human), UniProt P03372); experiment: In-cell Western (ICW) ER degradation assay in T47D cells; type: cell-based; details: for DC50: ER degradation
ER in T47D cells, sequence (P03372 whole entry): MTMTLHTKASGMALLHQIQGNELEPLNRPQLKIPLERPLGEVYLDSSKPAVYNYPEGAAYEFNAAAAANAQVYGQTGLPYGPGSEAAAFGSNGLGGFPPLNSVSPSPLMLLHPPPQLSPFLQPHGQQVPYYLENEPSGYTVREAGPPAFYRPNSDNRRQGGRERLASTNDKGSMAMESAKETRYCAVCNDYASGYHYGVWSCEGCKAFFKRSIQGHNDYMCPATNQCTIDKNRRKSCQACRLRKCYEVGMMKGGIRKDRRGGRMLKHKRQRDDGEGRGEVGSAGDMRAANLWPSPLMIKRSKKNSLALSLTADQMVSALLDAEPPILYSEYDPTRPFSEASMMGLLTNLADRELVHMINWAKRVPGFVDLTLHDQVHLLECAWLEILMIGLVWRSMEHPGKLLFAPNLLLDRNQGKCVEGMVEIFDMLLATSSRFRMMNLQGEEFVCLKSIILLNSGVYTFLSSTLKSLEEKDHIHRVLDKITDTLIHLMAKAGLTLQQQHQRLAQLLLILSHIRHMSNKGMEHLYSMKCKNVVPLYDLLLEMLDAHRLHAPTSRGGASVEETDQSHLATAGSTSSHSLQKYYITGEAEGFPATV

ER in MCF-7 cells = ER in MCF-7 cells (Homo sapiens (Human), UniProt P03372); experiment: In-cell Western (ICW) ER degradation assay in MCF-7 cells; type: cell-based; details: for DC50: MCF-7, ER degradation, read-out: MCF7 DC50
ER in MCF-7 cells, sequence (P03372 whole entry): as above

ERα_LBD (GST) = ERα_LBD (GST) (Homo sapiens (Human), UniProt P03372); experiment: IC50 measurements for binding to ERα_LBD (GST), LanthaScreen TR-FRET competitive binding; details: ERα_LBD (GST) 4 nM, Fluormone ES2 Green tracer, 60 min; read-out: ERα HTRF IC50
ERα_LBD (GST), sequence (P03372 311-547): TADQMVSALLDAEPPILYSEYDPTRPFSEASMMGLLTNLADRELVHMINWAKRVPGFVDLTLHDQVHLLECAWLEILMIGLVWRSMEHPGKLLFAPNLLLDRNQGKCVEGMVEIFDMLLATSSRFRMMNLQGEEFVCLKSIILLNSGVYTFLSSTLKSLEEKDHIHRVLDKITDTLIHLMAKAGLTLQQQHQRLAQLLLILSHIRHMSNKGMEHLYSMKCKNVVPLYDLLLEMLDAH
Description: In vitro Assay: IC50 Measurements for binding to ERα_LBD (GST) • Final assay conditions: • 1. ERα_LBD (GST) protein: 4 nM • 2. Tb Anti-GST: 2 nM • 3. Fluormone ES2 Green tracer: 3 nM • 4. Incubation time: 60 min • 5. DMSO: 1% • 6. Assay buffer: Adding 1M DTT to Nuclear receptor Buffer K for final 5 mM DTT. • 7. ZPE: 1% DMSO • 8. HPE: 1 μM ARV_471 (positive control) • 9. LanthaScreen® TR-FRET ERα Competitive Binding Assay (ThermoFisher, #A^15887) • 100× Compound preparation
1) Cherry pick 2 μL 10 mM compound stock to column 1 of a 384 intermediate plate. • 2) Add 18 μL DMSO to column 1 to dilute compound to 1 mM. • 3) Transfer 10 μL 1 mM compound to column 1 of a LDV plate. • 2) Add 6 μl DMSO to column 2-10 of the LDV plate. • 3) Compounds undergo 3-fold serial dilution (3 μL+6 μL) in DMSO. • 4) Transfer 120 nL compound solution to assay plate. ZPE: 120 nL 100% DMSO • Procedure:
Complete nuclear receptor buffer K was prepared by adding 1 M DTT to nuclear receptor buffer K for a final concentration of 5 mM DTT. Complete nuclear receptor buffer K must be prepared fresh daily, 2X protein solution was prepared using complete nuclear receptor buffer K containing 8 nM ERα_LBD (GST) and 4 nM Tb Anti-GST. Then, 2X Fluormone ES2 Green tracer (6 nM) was prepared using complete nuclear receptor buffer K. Add 6 μL 2X Fluormone ES2 green tracer into a compound plate (PerkinElmer 6008289) by dragonfly with one-tips-addition. Subsequently, 6 μL 2× protein solution was added into the plate. The 384-well plate was mixed on a plate shaker and incubated at room temperature protected from light for 60 min. The plate was scaled with a cover to minimize evaporation. The plate was read at wavelengths of 520 nm and 495 nm. The TR-FRET ratio was calculated by dividing the emission signal at 520 nm by the emission signal at 495 nm. A binding curve was generated by plotting the emission ratio vs, the log [ligand]. To determine the IC50 value, fit the data using XL-fit for a sigmoidal dose-response.

[1] = maximal ER degradation, 16 hrs treatment, read-out: T47D Dmax
[2] = MCF7, MCF-7, maximal ER degradation, 16 hrs treatment, read-out: MCF7 Dmax
[3] = MCF7, read-out: MCF7 Dmax, MCF-7, maximal ER degradation, 16 hrs treatment
[4] = read-out: T47D Dmax, T47D, maximal ER degradation, 16 hrs treatment

CRBN/DDB1, sequence (Q96SW2 whole entry, species assumed): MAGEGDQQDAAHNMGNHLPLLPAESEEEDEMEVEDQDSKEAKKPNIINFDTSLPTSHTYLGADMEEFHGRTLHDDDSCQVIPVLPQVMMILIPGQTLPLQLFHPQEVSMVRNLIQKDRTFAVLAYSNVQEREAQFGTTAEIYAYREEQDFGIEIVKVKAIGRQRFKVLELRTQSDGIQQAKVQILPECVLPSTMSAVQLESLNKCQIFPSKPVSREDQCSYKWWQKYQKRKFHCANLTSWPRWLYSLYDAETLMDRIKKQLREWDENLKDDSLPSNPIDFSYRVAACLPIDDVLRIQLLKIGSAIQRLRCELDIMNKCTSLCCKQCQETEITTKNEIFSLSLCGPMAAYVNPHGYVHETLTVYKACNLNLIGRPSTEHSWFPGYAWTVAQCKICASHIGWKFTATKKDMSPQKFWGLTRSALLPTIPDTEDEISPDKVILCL
CRBN/DDB1, sequence (Q16531 whole entry partner, species assumed): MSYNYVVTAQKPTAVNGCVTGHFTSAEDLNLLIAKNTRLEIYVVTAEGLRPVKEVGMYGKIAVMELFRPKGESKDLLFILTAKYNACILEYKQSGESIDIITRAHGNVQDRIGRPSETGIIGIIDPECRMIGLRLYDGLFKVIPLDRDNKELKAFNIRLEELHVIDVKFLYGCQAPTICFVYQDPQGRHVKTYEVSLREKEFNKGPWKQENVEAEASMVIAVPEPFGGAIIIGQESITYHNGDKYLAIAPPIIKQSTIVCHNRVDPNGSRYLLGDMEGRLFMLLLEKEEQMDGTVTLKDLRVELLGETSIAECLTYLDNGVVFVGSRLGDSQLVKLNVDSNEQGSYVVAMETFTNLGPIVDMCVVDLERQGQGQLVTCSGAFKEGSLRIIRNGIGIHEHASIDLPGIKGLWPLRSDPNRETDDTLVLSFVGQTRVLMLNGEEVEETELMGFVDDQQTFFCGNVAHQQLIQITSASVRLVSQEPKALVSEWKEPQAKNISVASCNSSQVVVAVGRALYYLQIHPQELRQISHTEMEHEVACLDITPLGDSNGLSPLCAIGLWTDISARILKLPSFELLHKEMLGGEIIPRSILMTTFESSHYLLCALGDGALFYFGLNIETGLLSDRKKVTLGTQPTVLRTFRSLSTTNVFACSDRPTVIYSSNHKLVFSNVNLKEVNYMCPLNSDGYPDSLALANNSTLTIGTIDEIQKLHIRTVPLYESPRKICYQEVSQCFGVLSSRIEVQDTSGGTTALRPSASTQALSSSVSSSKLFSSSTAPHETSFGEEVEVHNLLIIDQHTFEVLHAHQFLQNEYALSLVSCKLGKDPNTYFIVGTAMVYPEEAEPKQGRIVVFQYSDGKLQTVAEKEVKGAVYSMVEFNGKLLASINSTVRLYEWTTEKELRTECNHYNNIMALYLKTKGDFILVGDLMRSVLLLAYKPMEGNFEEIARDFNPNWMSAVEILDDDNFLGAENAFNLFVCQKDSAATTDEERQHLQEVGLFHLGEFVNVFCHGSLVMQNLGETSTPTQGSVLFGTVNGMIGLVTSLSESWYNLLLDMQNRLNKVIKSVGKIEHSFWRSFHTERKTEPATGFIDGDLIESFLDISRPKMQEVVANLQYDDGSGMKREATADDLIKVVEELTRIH

Row | SMILES | IC50 (CRBN/DDB1) | DC50 (ER in T47D cells; 16 hrs treatment) | Dmax (ER in T47D cells; [1]) | Dmax (ER in MCF-7 cells; [2]) | DC50 (ER in MCF-7 cells; 16 hrs treatment) | IC50 (ERα_LBD (GST)) | Dmax (ER in MCF-7 cells; [3]) | Dmax (ER in T47D cells; [4])
1 | O=C1CCC(NC(=O)c2ccc3c(n2)OC[C@H]2CN(CC4CCN(c5ccc([C@@H]6c7ccc(O)cc7CC[C@@H]6c6ccccc6)cc5)CC4)CCN32)C(=O)N1 (stereo partly drawn) [Compound A2, (4aR)-N-(2,6-dioxopiperidin-3-yl)-3-((1-(4-((1R,2S)-6-hydroxy-2-phenyl-1,2,3,4-tetrahydronaphthalen-1-yl)-phenyl)piperidin-4-yl)meth-yl)-1,2,3,4,4a,5-hexahydro-pyrazino[1,2-d]pyrido[2,3-b] [1,4]oxazine-8-carboxamide] | 0.5 to 5 µM | < 0.001 µM | > 75% | > 75% | < 0.001 µM | < 0.01 µM | – | –
2 | O=C1CC[C@H](N2Cc3cc4c(cc3C2=O)OC[C@H]2CN(C[C@@H]3COC5(CCN(c6ccc([C@@H]7c8ccc(O)cc8CC[C@@H]7c7ccccc7)cc6)CC5)C3)CCN42)C(=O)N1 (single isomer, unassigned) [Compound A18] | 0.5 to 5 µM | < 0.001 µM | 50 to 75% | 50 to 75% | < 0.001 µM | > 0.1 µM | – | –
3 | O=C1CC[C@H](N2Cc3c(ccc4c3OCC43CCN(CC4CCC5(CC4)CN(c4ccc([C@@H]6c7ccc(O)cc7CC[C@@H]6c6ccccc6)cn4)C5)CC3)C2=O)C(=O)N1 [Compound A131, (S)-3-(1′-((2-(5-((1S,2S)-6-hydroxy-2-phenyl-1,2,3,4-tetrahydronaphthalen-1-yl)pyridin-2-yl)-2-azaspiro[3.5]nonan-7-yl)methyl)-6-oxo-6,8-dihydro-2H,7H-spiro[furo[2,3-e]isoindole-3,4′-piperidin]-7-yl)piperidine-2,6-dione] | < 0.05 µM | – | – | – | < 0.001 µM | < 0.01 µM | > 75% | –
4 | O=C1CC[C@H](N2Cc3c(ccc4c3OCC43CCN(CC4CCC5(CC4)CN(c4ncc([C@@H]6c7ccc(O)cc7CC[C@@H]6c6ccccc6)cn4)C5)CC3)C2=O)C(=O)N1 [Compound A154, (S)-3-(1′-((2-(5-((1S,2S)-6-hydroxy-2-phenyl-1,2,3,4-tetrahydronaphthalen-1-yl)pyrimidin-2-yl)-2-azaspiro[3.5]nonan-7-yl)methyl)-6-oxo-6,8-dihydro-2H,7H-spiro[furo[2,3-e]isoindole-3,4′-piperidin]-7-yl)piperidine-2,6-dione] | < 0.05 µM | < 0.001 µM | – | – | < 0.001 µM | < 0.01 µM | 50 to 75% | > 75%
5 | O=C1CC[C@H](N2Cc3c(ccc4c3OCC43CCN(CC4CC5(CCN(c6ccc([C@@H]7c8ccc(O)cc8CC[C@@H]7c7ccccc7)cn6)CC5)C4)CC3)C2=O)C(=O)N1 [Compound A116, (S)-3-(1′-((7-(5-((1S,2S)-6-hydroxy-2-phenyl-1,2,3,4-tetra-hydronaphthalen-1-yl)pyridin-2-yl)-7-azaspiro[3.5]nonan-2-yl)methyl)-6-oxo-6,8-dihydro-2H,7H-spiro[furo[2,3-e]iso-indole-3,4′-piperidin]-7-yl)-piperidine-2,6-dione] | < 0.05 µM | < 0.001 µM | – | – | < 0.001 µM | < 0.01 µM | 50 to 75% | > 75%
6 | COC1(CN2CCN3c4ccc5c(c4OC[C@H]3C2)CN([C@H]2CCC(=O)NC2=O)C5=O)CCN(c2ccc([C@@H]3c4ccc(O)cc4CC[C@@H]3c3ccccc3)cc2)CC1 [Compound A82, (S)-3-((R)-7-((1-(4-((1R,2S)-6-hydroxy-2-phenyl-1,2,3,4-tetrahydronaphthalen-1-yl)-phenyl)-4-methoxypiperidin-4-yl)methyl)-1-oxo-1,3,5,5a,6,7,8,9-octahydro-2H-pyrazino [1′,2′:4,5][1,4]oxazino[2,3-c]isoindol-2-yl)piperidine-2,6-dione] | 0.05 to 0.5 µM | – | – | > 75% | < 0.001 µM | < 0.01 µM | – | –
7 | O=C1CC[C@H](N2Cc3c(ccc4c3OC[C@H]3CN(CC5CC6(CCN(c7ccc([C@@H]8c9ccc(O)cc9CC[C@@H]8c8ccccc8)cn7)CC6)C5)CCN43)C2=O)C(=O)N1 (single isomer, unassigned) [Compound A112] | 0.05 to 0.5 µM | – | – | > 75% | < 0.001 µM | < 0.01 µM | – | –
8 | COc1cc(N2CCC3(CC2)CC(CN2CCC4(CC2)COc2c4ccc4c2CN([C@H]2CCC(=O)NC2=O)C4=O)CO3)ccc1[C@H]1c2ccc(O)cc2CC[C@H]1c1ccccc1 (stereo partly drawn) [Compound A54, (3S)-3-(1′-((8-(4-((1R,2R)-6-hydroxy-2-phenyl-1,2,3,4-tetrahydronaphthalen-1-yl)-3-methoxyphenyl)-1-oxa-8-azaspiro[4.5]decan-3-yl)methyl)-6-oxo-6,8-dihydro-2H,7H-spiro[furo[2,3-e]isoindole-3,4′-piperidin]-7-yl)piperidine-2,6-dione] | < 0.05 µM | < 0.001 µM | – | – | < 0.001 µM | < 0.01 µM | 50 to 75% | > 75%
9 | COc1cc(N2CCC3(CC2)CC(CN2CCN4c5ccc6c(c5OC[C@H]4C2)CN([C@H]2CCC(=O)NC2=O)C6=O)C3)ccc1[C@H]1c2ccc(O)cc2CC[C@H]1c1ccccc1 (single isomer, unassigned) [Compound A9] | < 0.05 µM | 0.001 to 0.01 µM | 50 to 75% | 50 to 75% | 0.001 to 0.01 µM | 0.01 to 0.1 µM | – | –
10 | O=C1CC[C@H](N2Cc3c(ccc4c3OC[C@H]3CN(CC5CCC6(CC5)CN(c5ccc([C@@H]7c8ccc(O)cc8CC[C@@H]7c7ccccc7)cn5)C6)CCN43)C2=O)C(=O)N1 (single isomer, unassigned) [Compound A123] | – | – | > 75% | > 75% | – | < 0.01 µM | – | –
11 | COc1cc(N2CCC3(CC2)CC(CN2CCC(c4ccc(N[C@H]5CCC(=O)NC5=O)cc4)CC2)C3)c(F)cc1[C@@H]1c2ccc(O)cc2CC[C@@H]1c1ccccc1 (single isomer, unassigned) [Compound A30] | – | < 0.001 µM | > 75% | 50 to 75% | < 0.001 µM | < 0.01 µM | – | –
12 | COc1cc(N2CCC3(CC2)CC(CN2CCN4c5cc6c(cc5OC[C@@H]4C2)C(=O)N([C@H]2CCC(=O)NC2=O)C6)CO3)ccc1[C@H]1c2ccc(O)cc2CC[C@H]1c1ccccc1 (single isomer, unassigned) [Compound A56] | – | < 0.001 µM | – | – | < 0.001 µM | < 0.01 µM | 50 to 75% | > 75%
13 | COc1cc(N2CCC3(CC2)CC(CN2CCC4(CC2)COc2cc5c(cc24)CN([C@H]2CCC(=O)NC2=O)C5=O)C3)c(F)cc1[C@@H]1c2ccc(O)cc2CC[C@@H]1c1ccccc1 [Compound A129, (S)-3-(1′-((7-(2-fluoro-4-((1S,2S)-6-hydroxy-2-phenyl-1,2,3,4-tetrahydronaphthalen-1-yl)-5-methoxyphenyl)-7-azaspiro[3.5]nonan-2-yl)methyl)-7-oxo-5,7-dihydro-2H,6H-spiro[furo[2,3-f]isoindole-3,4′-piperidin]-6-yl)piperidine-2,6-dione] | – | < 0.001 µM | – | – | < 0.001 µM | < 0.01 µM | > 75% | > 75%
14 | O=C1CC[C@H](N2Cc3c(ccc4c3OCC43CCN(CC4CCC5(CC4)CN(c4ccc([C@@H]6c7ccc(O)cc7CC[C@@H]6c6ccccc6)cc4F)C5)CC3)C2=O)C(=O)N1 [Compound A161, (S)-3-(1′-((2-(2-fluoro-4-((1R, 2S)-6-hydroxy-2-phenyl-1,2,3,4-tetrahydronaphthalen-1-yl)phenyl)-2-azaspiro[3.5]nonan-7-yl)methyl)-6-oxo-6,8-dihydro-2H,7H-spiro[furo[2,3-e]isoindole-3,4′-piperidin]-7-yl)piperidine-2,6-dione] | < 0.05 µM | – | – | – | < 0.001 µM | < 0.01 µM | 50 to 75% | –
